The test has as its target T1, CBM65B (EcCel5A) ([Eubacterium] cellulosolvens, UniProt Q3LHN3).
T1 sequence (Q3LHN3 581-713): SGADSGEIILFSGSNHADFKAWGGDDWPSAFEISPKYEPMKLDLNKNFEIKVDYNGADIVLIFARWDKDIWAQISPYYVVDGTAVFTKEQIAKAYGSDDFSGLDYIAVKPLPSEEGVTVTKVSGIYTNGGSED
Briefly: ITC. It counts as binding. The note with it: 50 mM Na-HEPES pH 7.5, 25 °C; n 1.

The results in this text go back to paper PMC3576085 (The Journal of Biological Chemistry, 2012).

In the case of `OC[C@H]1O[C@@H](O[C@H]2[C@H](O)[C@@H](O)[C@H](O[C@H]3[C@H](O)[C@@H](O)[C@H](O[C@H]4[C@H](O)[C@@H](O)[C@H](O[C@H]5[C@H](O)[C@@H](O)[C@H](O[C@H]6[C@H](O)[C@@H](O)C(O)O[C@@H]6CO)O[C@@H]5CO)O[C@@H]4CO)O[C@@H]3CO)O[C@@H]2CO)[C@H](O)[C@@H](O)[C@@H]1O` (stereo partly shown) [C6, cellohexaose], the Ka is given as 2.3 (±0.2) x 10^3.
